Laboratory results reported in patent US4906622A, “Optically active 2-chloro-12-(3-dimethylamino-2-methyl-propyl)-12H-dibenzo[d.g] [1,3,6] dioxazocines and a process for the preparation thereof” (Egis Gyogyszergyar, priority 1985, dated 1990).
Structures can show the parent of a compound that is named as a salt. Where two headings read alike, the source gives them in different places.

Columns and labels:
mice = assay: Acute toxicity on mice with peroral treatment; assay type: in vivo; conditions: for LD50 p.o. (Table 1): Table 1, hydrochloride; for LD50 p.o. (Table 2): repeated test, population of 500 mice for each compound, hydrochloride
Description: (§1) The hydrochloride of the racemic compound, the hydrochloride of the (-)-isomer [compound of Example 6; the salt has (+) rotation] and the hydrochloride of the (+)-isomer [compound of Example 7; the salt has (-) rotation] were tested for acute toxicity on mice with peroral treatment and for the inhibition of tremor induced by tremorine (the latter test characterizes the action against Parkinson's disease). In the latter case, the inhibition of tremor induced by tremorine [1,1'-(2-butynylene)-dipyrrolidine] administered intraperitoneally at a dosage of 20 mg/kg was tested on mice as described in Science, 124, 79 (1956). The compound to be examined was given perorally to a population of 50 mice one hour prior to the administration of tremorine, and the tremor developed was evaluated 45 minutes after the administration of tremorine.
(§2) To make sure that no contradiction exists between the data of Table I on the one hand, and the data of U.S. Pat. No. 4,208,410 on the other hand, the above tests was repeated using a population of 500 mice for each compound tested.

[1] = tested on: tremor induced by tremorine; assay: animal or person; assay type: in vivo, mice; conditions: for T.I. (therapeutic index) (Table 1) / T.I. (therapeutic index) (Table 2) / ED50: po; for ED50 p.o., inhibition of tremor induced by tremorine (Table 1) / ED50 p.o., inhibition of tremor induced by tremorine (Table 2): hydrochloride; for ED50: Mus musculus
Description: as §1
Since a lower population of mice was used, less exact values of ED50 were obtained for the compounds tested. Thus, the therapeutic index calculated for the racemic compound is lower by a factor of about 2.4 than the value given in U.S. Pat. No. 4 4,208,410. However, the data obtained under identical test circumstances on a relatively low number of test animals can be compared with each other.
as §2

[2] = cited from earlier work
[3] = Local anaesthetic activity; assay type: in vivo; conditions: primary tests / detailed tests
[4] = Acute toxicity on mice with peroral treatment; assay type: in vivo; conditions: mouse, in vivo, po
Description: as §1, §2

[5] = p.o. one hour before tremorine 20 mg/kg i.p., evaluated 45 minutes after tremorine, population of 50 mice
[6] = repeated test, population of 500 mice for each compound
[7] = population of 500 mice, U.S. Pat. No. 4,208,410

CC(CN(C)C)CN1c2ccccc2OCOc2ccc(Cl)cc21 (single isomer, unassigned; (-)) [Example 7, (-)-2-Chloro-12-(3-dimethylamino-2-methylpropyl)-12H-dibenzo[d,g][1,3,6]dioxazocine hydrochloride]
LD50 p.o. (Table 1) (mice): 460 mg/kg
LD50 p.o. (Table 2) (mice): 460 mg/kg
T.I. (therapeutic index) (Table 1) ([1]; mouse, in vivo): 65.7
T.I. (therapeutic index) (Table 2) ([1]; mouse, in vivo): 160.8
ED50 p.o., inhibition of tremor induced by tremorine (Table 1) [1, 5]: 7 mg/kg
ED50 p.o., inhibition of tremor induced by tremorine (Table 2) [1, 6]: 2.86 mg/kg

CC(CN(C)C)CN1c2ccccc2OCOc2ccc(Cl)cc21 (racemic) [2-chloro-12-(3-dimethylamino-2-methylpropyl)-12H-dibenzo[d,g][1,3,6]-dioxazocine]
local anaesthetic and antiparkinsonic activity ([2]; known from U.S. Pat. No. 4,208,410): has local anaesthetic and antiparkinsonic activity
ED50, antiparkinsonic activity [2, 7]: 11 mg/kg
therapeutic index [2, 7]: 25

CC(CN(C)C)CN1c2ccccc2OCOc2ccc(Cl)cc21 (single isomer, unassigned; (+)) [Example 6, (+)-2-chloro-12-(3-dimethylamino-2-methylpropyl)-12H-dibenzo[d,g][1,3,6]dioxazocine hydrochloride]
LD50 p.o. (Table 1) (mice): 160 mg/kg
LD50 p.o. (Table 2) (mice): 160 mg/kg
T.I. (therapeutic index) (Table 1) ([1]; mouse, in vivo): 72.7
T.I. (therapeutic index) (Table 2) ([1]; mouse, in vivo): 168.4
ED50 p.o., inhibition of tremor induced by tremorine (Table 1) [1, 5]: 2.2 mg/kg
ED50 p.o., inhibition of tremor induced by tremorine (Table 2) [1, 6]: 0.95 mg/kg

CC(CN(C)C)CN1c2ccccc2OCOc2ccc(Cl)cc21 (racemic) [racemic, reference compound]
local anaesthetic activity [3]: has local anaesthetic activity, detailed tests have not shown any therapeutically valuable effect
LD50 ([4]; Table 1, read-out: LD50 p.o. (Table 1)): 270 mg/kg
LD50 ([4]; repeated test, population of 500 mice for each compound, read-out: LD50 p.o. (Table 2)): 270 mg/kg
ED50 ([1]; p.o. one hour before tremorine 20 mg/kg i.p., evaluated 45 minutes after tremorine, population of 50 mice, read-out: ED50 p.o., inhibition of tremor induced by tremorine (Table 1)): 25 mg/kg
ED50 ([1]; repeated test, population of 500 mice for each compound, read-out: ED50 p.o., inhibition of tremor induced by tremorine (Table 2)): 10.5 mg/kg
factor by which the therapeutic index is lower than the value given in U.S. Pat. No. 4,208,410 ([1]; mouse, in vivo): about 2.4
T.I. (therapeutic index) (Table 1) ([1]; mouse, in vivo): 10.8
T.I. (therapeutic index) (Table 2) ([1]; mouse, in vivo): 25.7
